Laboratory results from ChEMBL document CHEMBL1201862, “PubChem BioAssay data set” (2004).
Calls of active or inactive are those of the source.

How the values were obtained:
[1] = Luminescence Cell-Based Dose Confirmation to Identify Activators of 5'UTR Stem-Loop Driven Alpha-Synuclein mRNA Translation in H4 Neuroglioblastoma Cells. [Related pubchem assays: 1829 (Project Summary), 1814 (Primary HTS)]; format: functional
[2] = Luminescence Cell-Based Dose Response to Identify Activators of Luciferase Translation or Activity in H4-C Neuroglioblastoma Cells. [Related pubchem assays: 1829 (Project Summary), 1814 (Primary HTS)]; format: functional
H4 = experiment: Luminescence Cell-Based Dose Response HTS to Identify Activators of 5'UTR Stem-Loop Driven Prion Protein mRNA Translation in H4 Neuroglioblastoma Cells. [Related pubchem assays: 1829 (Project Summary), 1814 (Primary HTS)]; format: functional; conditions: Homo sapiens
[3] = Luminescence Cell-Based Dose Response to Identify Activators of 5'UTR Stem-Loop Driven Prion Protein mRNA Translation in H4-C Neuroglioblastoma Cells. [Related pubchem assays: 1829 (Project Summary), 1814 (Primary HTS)]; format: functional
[4] = target: T1, Tyrosine-protein phosphatase non-receptor type 7 (Homo sapiens, UniProt P35236); experiment: inhibitors of human HePTP phosphatase, […], biochemical, absorbance, leukemia target (AID 521); format: functional
T1 sequence (P35236 whole entry): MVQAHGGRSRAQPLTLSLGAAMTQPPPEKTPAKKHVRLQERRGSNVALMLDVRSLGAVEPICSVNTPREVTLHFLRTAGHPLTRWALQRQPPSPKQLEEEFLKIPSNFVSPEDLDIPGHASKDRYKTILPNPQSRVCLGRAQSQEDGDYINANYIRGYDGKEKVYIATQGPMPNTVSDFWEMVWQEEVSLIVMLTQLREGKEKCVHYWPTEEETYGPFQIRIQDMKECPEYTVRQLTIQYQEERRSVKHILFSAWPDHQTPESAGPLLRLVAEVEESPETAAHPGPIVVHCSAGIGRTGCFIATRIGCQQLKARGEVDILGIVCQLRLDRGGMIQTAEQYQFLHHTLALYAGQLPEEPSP

[5] = inhibitors of Bluetongue virus cytopathic effect, confirmation, arbovirus, BSR cells (AID 1250); format: functional;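 further: protection from viral cytopathic effect measured as cell viability by ATP luminescence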
[6] = A Cell Based Secondary Assay To Explore Cytotoxicity of Compounds that Sensitize Mycobacterium Tuberculosis to Beta-Lactam Antibiotics.; format: functional
[7] = growth suppression of PTEN-null colon cells, dose response, cell-based, HCT116 PTEN knockout (AID 1047); format: functional;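 further: HCT116 colon tumor cells with PTEN knocked out; cells exposed to compound for 60 hours before readout; potency for loss of cell viability measured by luminescence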
[8] = growth suppression of beta-catenin-knockout colon cells, dose response, cell-based, HCT116, human colon tumor (AID 1045); format: functional;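 further: HCT116 colon tumor cells with beta catenin knocked out; cells exposed to compound for 60 hours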
[9] = HEp-2 cell cytotoxicity, dose response, cytotoxicity control for RSV inhibitor project, HTS (AID 2410); format: functional; conditions: human respiratory syncytial virus
[10] = Luminescence Cell-Based Dose Retest to Confirm Inhibitors of Cancer Stem Cells. [Related pubchem assays (depositor defined):AID2717, AID2721]; format: functional; conditions: Homo sapiens
[11] = target: T2, E3 ubiquitin-protein ligase XIAP (Homo sapiens, UniProt P98170); experiment: Counter Screen using XIAP-Bir3 for Chemical Antagonists of Bir1/2 domains of IAP-family anti-apoptotic proteins. [Related pubchem assays (depositor defined):AID1018, AID1449, AID1514, AID1638, AID1749, AID1750, AID488957, AID488963]
T2 sequence (P98170 whole entry): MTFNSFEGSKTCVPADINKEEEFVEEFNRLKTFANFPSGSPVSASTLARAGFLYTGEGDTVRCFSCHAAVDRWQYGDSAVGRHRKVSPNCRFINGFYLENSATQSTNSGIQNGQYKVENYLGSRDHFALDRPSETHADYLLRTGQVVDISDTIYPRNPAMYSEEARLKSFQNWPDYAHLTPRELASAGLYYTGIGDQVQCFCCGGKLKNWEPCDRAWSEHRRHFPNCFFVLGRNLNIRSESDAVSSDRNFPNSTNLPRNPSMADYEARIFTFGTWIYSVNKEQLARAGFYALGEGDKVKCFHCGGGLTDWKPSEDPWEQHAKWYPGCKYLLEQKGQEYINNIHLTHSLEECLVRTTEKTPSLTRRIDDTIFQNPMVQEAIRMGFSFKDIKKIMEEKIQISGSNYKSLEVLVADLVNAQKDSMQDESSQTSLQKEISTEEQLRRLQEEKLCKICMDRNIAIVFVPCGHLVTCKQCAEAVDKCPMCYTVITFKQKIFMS

[12] = target: T2, E3 ubiquitin-protein ligase XIAP; experiment: XIAP antagonists, biochemical, IAP family, fluorescence polarization (AID 1018); format: functional
[13] = Luminescence Cell-Based Dose Response HTS to Identify Activators of Luciferase Translation or Activity in H4 […] Cells. [Related pubchem assays: 1829 (Project Summary), 1814 (Primary HTS)]; format: functional
[14] = inhibitors of SNCA 5'UTR-driven reporter translation, confirmation, H4 neuroglioma cells, luminescence (AID 1988); format: functional, cell-based
[15] = Luminescence Cell-Based Dose Response HTS to Identify Inhibitors of 5'UTR Stem-Loop Driven Prion Protein mRNA Translation in H4 Neuroglioblastoma Cells. [Related pubchem assays: 1827 (Project Summary), 1813 (Primary HTS)]; format: functional
[16] = inhibitors of firefly luciferase expression or activity, dose response, H4 neuroglioma cells, luminescence (AID 1990); format: functional, cell-based
[17] = NIH-3T3 fibroblast cytotoxicity, dose response, cytotoxicity control, cell-based, fluorescence, Alamar Blue, secondary assay (AID 2327); format: functional;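 further: NIH-3T3 mouse fibroblasts cultured with fluconazole at 8 µg/mL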
[18] = cytotoxicity toward NIH3T3 fibroblasts, dose response, counter-screen, cell-based, ATP luminescence, mouse fibroblasts (AID 2010); format: functional;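 further: cells exposed to compound for about 90 hours before reading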
[19] = C. albicans growth with fluconazole, confirmation, fluorescence, retest (AID 2467); format: functional, cell-based
[20] = target: T3, Mannose-6-phosphate isomerase (Homo sapiens, UniProt P34949); experiment: human PMI inhibitors, high substrate, primary screen, biochemical, fluorescence intensity, high mannose 6-phosphate (AID 1220)
T3 sequence (P34949 whole entry): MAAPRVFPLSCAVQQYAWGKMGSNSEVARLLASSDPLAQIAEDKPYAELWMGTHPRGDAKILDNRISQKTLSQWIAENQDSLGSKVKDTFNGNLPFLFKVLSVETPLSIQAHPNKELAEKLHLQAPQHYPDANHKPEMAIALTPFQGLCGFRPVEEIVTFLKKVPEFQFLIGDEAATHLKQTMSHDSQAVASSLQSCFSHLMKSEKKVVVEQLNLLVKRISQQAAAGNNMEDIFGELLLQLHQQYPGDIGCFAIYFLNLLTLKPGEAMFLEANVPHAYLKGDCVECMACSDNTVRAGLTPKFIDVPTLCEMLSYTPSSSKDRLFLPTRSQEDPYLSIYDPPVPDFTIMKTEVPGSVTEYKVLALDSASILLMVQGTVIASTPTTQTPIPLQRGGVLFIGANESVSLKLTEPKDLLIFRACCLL

Vero = experiment: cells; format: functional; conditions: Chlorocebus sabaeus
[21] = inhibitors of intracellular T. cruzi replication, confirmation, NIH3T3 host cells, beta-gal luminescence (AID 2044); format: functional, cell-based;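 further: intracellular parasites grown in NIH/3T3 mouse fibroblasts as host cells; luminescent beta-galactosidase reporter signal from transgenic T. cruzi replicating inside host cells; inhibitors lower the luminescence signal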
[22] = target: Glucose-6-phosphate 1-dehydrogenase (Homo sapiens, UniProt P11413); experiment: human G6PD enzyme inhibitors, dose response, selectivity assay for P. falciparum G6PD inhibitor project, biochemical, fluorescence (AID 504792); format: functional
Glucose-6-phosphate 1-dehydrogenase, sequence (P11413 whole entry): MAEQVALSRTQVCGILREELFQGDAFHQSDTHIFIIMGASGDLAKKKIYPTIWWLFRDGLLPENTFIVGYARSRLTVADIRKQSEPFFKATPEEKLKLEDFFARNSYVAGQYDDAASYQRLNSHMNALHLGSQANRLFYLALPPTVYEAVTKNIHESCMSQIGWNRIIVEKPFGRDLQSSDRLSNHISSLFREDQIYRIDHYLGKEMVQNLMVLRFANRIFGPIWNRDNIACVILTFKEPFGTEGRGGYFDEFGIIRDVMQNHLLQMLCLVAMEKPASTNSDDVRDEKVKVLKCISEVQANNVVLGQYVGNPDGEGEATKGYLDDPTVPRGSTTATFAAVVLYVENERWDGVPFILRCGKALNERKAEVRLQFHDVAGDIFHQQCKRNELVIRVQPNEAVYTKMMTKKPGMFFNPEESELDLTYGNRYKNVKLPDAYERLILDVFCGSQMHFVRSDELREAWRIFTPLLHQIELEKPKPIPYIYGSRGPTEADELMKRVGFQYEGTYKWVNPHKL
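Wherever AC50 is given: cells exposed to compound for roughly 70 hours or longer before luminescence read.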

CC(C)(C)c1ccc(OCCn2ccccc2=O)cc1
EC50 [1]: 0.668 µM (active)
EC50 [2]: 0.237 µM (active)
EC50 (H4): < 0.1 µM (active)
EC50 [3]: 0.546 µM (active)

CCn1cc(C(=O)NCC2CCCO2)c(=O)c2cc(S(=O)(=O)N3CCC(C)CC3)ccc21 (configuration not stated)
IC50 [4]: > 100 µM (not active)

CC(C)Cn1c2c(c(O)c(C(=O)Nc3nccs3)c1=O)CCCC2
IC50 [5]: 94.4 µM (active)
CC50 [6]: > 40 µM (active)

COc1ccc2c(c1)-c1nc(NC(=O)c3cccs3)sc1CC2
EC50 [7]: 22 µM (active)
IC50 (cells): 26.8 µM (active)
EC50 [8]: 21.4 µM (active)
CC50 [9]: 7.91 µM (active)
AC50 [10]: 6.23 µM (active)

O=c1nc(NCc2ccco2)sc2ncccc12
IC50 [11]: > 100 µM (inactive)
IC50 [12]: > 100 µM (not active)

O=C(NC1=NCCS1)c1ccc(Cl)cc1
EC50 [1]: 0.24 µM (active)
EC50 [13]: < 0.1 µM (inconclusive)
EC50 [2]: 0.401 µM (active)
EC50 (H4): 101 µM (active)
EC50 [3]: 0.744 µM (active)

COc1ccc(OC)c(C2C(C(=O)Nc3ccccc3OC)=C(C)Nc3nc(CCCO)nn32)c1 (configuration not stated)
IC50 [4]: > 100 µM (not active)

COc1ccc(/N=C2/C(=N\c3ccc(OC)cc3)N(c3ccc(OC)cc3)C(=S)N2c2ccc(N(C)C)cc2)cc1
EC50 [14]: 0.123 µM (active)
IC50 (cells): 5.89 µM (active)
EC50 [15]: 0.126 µM (active)
CC50 [9]: > 50 µM (active)
EC50 [16]: 0.146 µM (active)

COc1cc(CNc2ccc(N3CCCC3)cc2)cc(Cl)c1OC
EC50 [17]: 48.1 µM (inconclusive)
EC50 [18]: > 30 µM (not active)
EC50 [19]: > 38 µM (not active)
IC50 [20]: > 50 µM (not active)
CC50 (Vero): 4.57 µM (active)
EC50 [21]: 2.95 µM (active)
IC50 [22]: > 80 µM (inactive)
